How the values were obtained:
[1] = target: T1, EGFR (aa668-1210, Invitrogen) (Homo sapiens, UniProt P00533); assay: Biochemical EGFR inhibition assay (TR-FRET), wild-type EGFR; details: ATP at Km, 15 min pre-incubation, 60 min reaction; read-out: WT (Km ATP) IC50
T1 construct: EGFR (aa668-1210, Invitrogen); purchased Invitrogen
Summary of the method: (§1)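 Biotin-poly GT phosphorylation detected with Eu-cryptate anti-phosphotyrosine (PT66) and XL665-streptavidin after EDTA/KF stop, 665/620 nm ratio. Enzyme and compound preincubated 15 min, then ATP at Km added for 60 min at room temperature. Four-parameter logistic fit gives IC50.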

BaF3-WT cells = BaF3-WT cells (Homo sapiens, UniProt P00533); assay: Cell antiproliferation assay (CellTiter-Glo), BaF3-WT; format: cell-based; details: 48 h treatment, read-out: BaF3-WT IC50
Experimental: (§2) BaF3 cells are treated with compounds diluted in 0.2% DMSO, dilution is done according to the following protocol: (1) make 500× stock solution in DMSO from 5 mM by 5-fold dilution, total 8 doses were included; (2) make 10× solution in cell culture medium by transferring 2 μl 500× stock solution into 98 μl medium; (3) 10 μl of 10× solution is added to cells and incubate for 48 h.
(§3) After 48 h treatment, add 30 μl CellTiter-Glo reagent[CellTiter-Glo® 2.0, (Promega, Cat #G9242)] to each well; seal the plate and incubate 2 min at room temperature on a plate shaker; Allow the plate to incubate at room temperature for 10 minutes to stabilize the luminescent signal. Record luminescence on BMG PheraStar with luminescence protocol.
(§4) The IC50 value of a compound can be obtained by fitting the following equation
(§5) Wherein, X and Y are known values, and IC50, Hillslope, Top and Bottom are the parameters obtained by fitting with software. Y is the inhibition percentage (calculated from the equation), X is the concentration of the compound; IC50 is the concentration of the compound when the 50% inhibition is reached. The smaller the IC50 value is, the stronger the inhibitory ability of the compound is. Vice versa, the higher the IC50 value is, the weaker the ability the inhibitory ability of the compound is; Hillslope represents the slope of the fitted curve, generally around 1 *; Bottom represents the minimum value of the curve obtained by data fitting, which is generally 0%±20%; Top represents the maximum value of the curve obtained by data fitting, which is generally 100%±20%. The experimental data were fitted by calculating and analyzing with Dotmatics data analysis software.

BaF3-Del_TM_CS cells = BaF3-Del_TM_CS cells (Homo sapiens, UniProt P00533, T790M/C797S, cells depend on it, form not given); assay: Cell antiproliferation assay (CellTiter-Glo), BaF3-Del_TM_CS; format: cell-based; details: 48 h treatment, read-out: BaF3-Del_TM_CS IC50
Experimental: as §2, §3, §4, §5

[2] = target: T2, EGFR(L858R_T790M_C797S) (aa695-end, Invitrogen) (Homo sapiens, UniProt P00533, C797S/L858R/T790M); assay: Biochemical EGFR inhibition assay (TR-FRET), L858R/T790M/C797S mutant; details: ATP at Km, 15 min pre-incubation, 60 min reaction; read-out: LR_TM_CS (Km ATP) IC50
T2 construct: purchased Invitrogen
Summary of the method: as §1

[3] = target: EGFR(Dell9_T790M_C797S) (aa 669-1210, in house) (Homo sapiens, UniProt P00533, T790M/C797S, form not given); assay: Biochemical EGFR inhibition assay (TR-FRET), Del19/T790M/C797S mutant; details: ATP at Km, 15 min pre-incubation, 60 min reaction; read-out: Del_TM_CS (Km ATP) IC50
Summary of the method: as §1

BaF3-LR_TM_CS cells = BaF3-LR_TM_CS cells (Homo sapiens, UniProt P00533, T790M/C797S/L858R, cells depend on it); assay: Cell antiproliferation assay (CellTiter-Glo), BaF3-LR_TM_CS; format: cell-based; details: 48 h treatment, read-out: BaF3-LR_TM_CS IC50
Experimental: as §2, §3, §4, §5

T1 sequence (P00533 668-1210): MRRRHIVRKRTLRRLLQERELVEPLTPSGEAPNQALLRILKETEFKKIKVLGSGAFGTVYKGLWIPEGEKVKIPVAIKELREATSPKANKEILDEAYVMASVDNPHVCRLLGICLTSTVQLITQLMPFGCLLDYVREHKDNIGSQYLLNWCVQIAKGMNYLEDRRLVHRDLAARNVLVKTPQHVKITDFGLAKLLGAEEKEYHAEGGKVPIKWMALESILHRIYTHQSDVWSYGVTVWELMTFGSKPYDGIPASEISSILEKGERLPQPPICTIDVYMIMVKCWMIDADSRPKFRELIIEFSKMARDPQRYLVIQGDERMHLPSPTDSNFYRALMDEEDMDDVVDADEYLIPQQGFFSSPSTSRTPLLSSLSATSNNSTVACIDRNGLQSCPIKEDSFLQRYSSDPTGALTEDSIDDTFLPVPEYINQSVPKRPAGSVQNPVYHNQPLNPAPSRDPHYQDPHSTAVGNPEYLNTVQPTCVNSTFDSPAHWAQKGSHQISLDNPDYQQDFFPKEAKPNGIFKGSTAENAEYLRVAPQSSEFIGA
Sequence of BaF3-WT cells (P00533 whole entry, change not shown): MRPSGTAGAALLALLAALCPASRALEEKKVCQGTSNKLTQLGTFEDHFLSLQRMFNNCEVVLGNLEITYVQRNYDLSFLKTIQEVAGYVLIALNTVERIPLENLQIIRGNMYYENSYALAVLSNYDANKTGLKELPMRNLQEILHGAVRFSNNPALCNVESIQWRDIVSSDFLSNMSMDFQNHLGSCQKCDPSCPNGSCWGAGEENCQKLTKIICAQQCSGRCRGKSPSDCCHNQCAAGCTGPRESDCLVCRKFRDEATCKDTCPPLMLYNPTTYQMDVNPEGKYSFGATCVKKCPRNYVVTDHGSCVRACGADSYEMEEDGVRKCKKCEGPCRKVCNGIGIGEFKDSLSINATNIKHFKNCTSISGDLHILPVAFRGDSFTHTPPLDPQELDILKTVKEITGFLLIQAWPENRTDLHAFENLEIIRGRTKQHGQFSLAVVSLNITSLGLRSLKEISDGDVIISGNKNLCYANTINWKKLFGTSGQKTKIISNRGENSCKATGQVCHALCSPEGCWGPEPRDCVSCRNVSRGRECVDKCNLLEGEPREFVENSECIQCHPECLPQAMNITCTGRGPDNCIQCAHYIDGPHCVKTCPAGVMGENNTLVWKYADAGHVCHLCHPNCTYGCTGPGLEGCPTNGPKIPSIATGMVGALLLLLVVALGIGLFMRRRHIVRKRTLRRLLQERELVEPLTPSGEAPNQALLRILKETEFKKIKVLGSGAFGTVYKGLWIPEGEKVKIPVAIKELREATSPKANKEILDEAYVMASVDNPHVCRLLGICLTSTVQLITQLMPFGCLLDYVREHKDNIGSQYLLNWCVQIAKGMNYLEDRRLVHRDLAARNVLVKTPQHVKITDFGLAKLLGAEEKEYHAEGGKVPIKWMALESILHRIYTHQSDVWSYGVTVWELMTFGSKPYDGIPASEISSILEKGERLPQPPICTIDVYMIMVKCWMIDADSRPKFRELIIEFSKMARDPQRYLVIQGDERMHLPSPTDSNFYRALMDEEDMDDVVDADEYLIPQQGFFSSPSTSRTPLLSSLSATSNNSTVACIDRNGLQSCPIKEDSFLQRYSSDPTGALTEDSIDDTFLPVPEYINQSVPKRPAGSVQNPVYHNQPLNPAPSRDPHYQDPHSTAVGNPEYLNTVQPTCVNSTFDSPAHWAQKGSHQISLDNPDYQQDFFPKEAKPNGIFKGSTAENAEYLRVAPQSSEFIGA
Sequence of EGFR(Dell9_T790M_C797S) (aa 669-1210, in house) (P00533 with tags, fused parts or gaps DEL746-750/T790M/C797S, form open): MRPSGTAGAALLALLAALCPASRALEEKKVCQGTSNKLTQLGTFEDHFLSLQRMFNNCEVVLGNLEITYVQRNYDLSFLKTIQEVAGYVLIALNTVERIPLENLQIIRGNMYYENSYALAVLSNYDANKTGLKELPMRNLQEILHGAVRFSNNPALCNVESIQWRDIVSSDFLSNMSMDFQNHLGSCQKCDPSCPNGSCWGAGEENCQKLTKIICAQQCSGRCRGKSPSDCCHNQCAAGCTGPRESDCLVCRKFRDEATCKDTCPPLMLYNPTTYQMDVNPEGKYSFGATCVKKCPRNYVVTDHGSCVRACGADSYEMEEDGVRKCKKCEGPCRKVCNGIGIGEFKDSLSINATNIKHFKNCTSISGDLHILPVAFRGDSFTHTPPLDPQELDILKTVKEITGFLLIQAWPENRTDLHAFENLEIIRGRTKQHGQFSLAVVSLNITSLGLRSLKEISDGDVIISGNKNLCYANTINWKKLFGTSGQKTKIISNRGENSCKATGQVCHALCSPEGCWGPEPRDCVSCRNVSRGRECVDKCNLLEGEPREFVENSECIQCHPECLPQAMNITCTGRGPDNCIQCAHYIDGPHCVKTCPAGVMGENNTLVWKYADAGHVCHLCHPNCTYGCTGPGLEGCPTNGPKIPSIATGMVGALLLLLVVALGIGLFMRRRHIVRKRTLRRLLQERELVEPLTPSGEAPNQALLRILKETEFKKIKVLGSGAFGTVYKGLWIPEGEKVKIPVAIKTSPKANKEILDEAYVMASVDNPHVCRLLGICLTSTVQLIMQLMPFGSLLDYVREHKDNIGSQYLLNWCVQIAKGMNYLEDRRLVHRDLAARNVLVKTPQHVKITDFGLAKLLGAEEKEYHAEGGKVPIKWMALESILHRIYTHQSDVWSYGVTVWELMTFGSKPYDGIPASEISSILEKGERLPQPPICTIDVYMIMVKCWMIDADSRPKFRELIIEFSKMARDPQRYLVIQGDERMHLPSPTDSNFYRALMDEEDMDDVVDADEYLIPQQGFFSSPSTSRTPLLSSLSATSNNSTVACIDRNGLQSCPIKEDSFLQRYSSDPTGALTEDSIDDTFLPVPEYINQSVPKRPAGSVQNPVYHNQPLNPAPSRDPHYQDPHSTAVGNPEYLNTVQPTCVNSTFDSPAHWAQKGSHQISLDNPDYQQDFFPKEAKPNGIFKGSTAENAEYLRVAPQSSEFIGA
Sequence of BaF3-Del_TM_CS cells (P00533 with tags, fused parts or gaps DEL746-750/T790M/C797S, form open): as above
T2 sequence (P00533 695-1210 T790M/C797S/L858R): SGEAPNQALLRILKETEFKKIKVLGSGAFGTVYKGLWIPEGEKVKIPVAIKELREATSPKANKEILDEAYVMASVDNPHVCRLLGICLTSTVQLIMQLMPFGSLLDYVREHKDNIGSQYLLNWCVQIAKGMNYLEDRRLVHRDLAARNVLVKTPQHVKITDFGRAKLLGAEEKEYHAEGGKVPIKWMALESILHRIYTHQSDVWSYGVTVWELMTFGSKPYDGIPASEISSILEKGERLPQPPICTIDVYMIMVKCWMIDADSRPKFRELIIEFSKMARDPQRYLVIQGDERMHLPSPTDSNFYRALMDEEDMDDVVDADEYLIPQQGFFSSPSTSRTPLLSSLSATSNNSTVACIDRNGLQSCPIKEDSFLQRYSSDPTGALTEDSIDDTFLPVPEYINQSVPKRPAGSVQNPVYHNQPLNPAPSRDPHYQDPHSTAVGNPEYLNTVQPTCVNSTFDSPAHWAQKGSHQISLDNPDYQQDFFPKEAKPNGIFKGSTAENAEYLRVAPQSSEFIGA

SMILES | IC50 [1] [nM] | GI50 (BaF3-WT cells) [nM] | GI50 (BaF3-Del_TM_CS cells) [nM] | IC50 [2] [nM] | IC50 [3] [nM] | GI50 (BaF3-LR_TM_CS cells) [nM]
COc1cc(N2CCC(N3CCN(C)CC3)CC2)ccc1Nc1ncc(Cl)c(Nc2cccc3c2N(C(C)=O)CC3)n1 [Example 17, 1-(7-((5-chloro-2-((2-methoxy-4-(4-(4-methylpiperazin-1-yl)piperidin-1-yl)phenyl)amino)pyrimidin-4-yl)amino)indolin-1-yl)ethan-1-one] | 21 | 1710 | 183 | 6.7 | 15 | 366
COc1cc(N2CCC(N3CCN(C)CC3)CC2)ccc1Nc1ncc(Cl)c(Nc2cccc3c2N(S(C)(=O)=O)C(C)C3)n1 (stereo not drawn) [Example 18, 5-chloro-N^2-(2-methoxy-4-(4-(4-methylpiperazin-1-yl)piperidin-1-yl)phenyl)-N^4-(2-methyl-1-(methylsulfonyl)indolin-7-yl)pyrimidine-2,4-diamine] | 2.3 | 422 | 7.47 | 0.4 | 0.68 | 16.5
COc1cc(N2CCC(N3CCN(C)CC3)CC2)ccc1Nc1ncc(Cl)c(Nc2cccc3c2N(S(C)(=O)=O)CC3C)n1 (stereo not drawn) [Example 23, 5-chloro-N^2-(2-methoxy-4-(4-(4-methylpiperazin-1-yl)piperidin-1-yl)phenyl)-N^4-(3-methyl-1-(methylsulfonyl)indolin-7-yl)pyrimidine-2,4-diamine] | 1.1 | 453 | 13.3 | 0.54 | 0.54 | 38.4
COc1cc(N2CCC(N3CCN(C)CC3)CC2)ccc1Nc1ncc(Cl)c(Nc2cccc3c2N(S(C)(=O)=O)CC3)n1 [Example 30, 5-chloro-N^2-(2-methoxy-4-(4-(4-methylpiperazin-1-yl)piperidin-1-yl)phenyl)-N^4-(1-(methylsulfonyl)indolin-7-yl)pyrimidine-2,4-diamine] | 0.4 | 411 | 7.59 | 0.3 | 0.2 | 37.3
COc1cc(N2CCC(N3CCN(C)CC3)CC2)ccc1Nc1ncc(C(F)(F)F)c(Nc2cccc3c2N(S(C)(=O)=O)CC3)n1 [Example 31, N^2-(2-methoxy-4-(4-(4-methylpiperazin-1-yl)piperidin-1-yl)phenyl)-N^4-(1-(methylsulfonyl)indolin-7-yl)-5-(trifluoromethyl)pyrimidine-2,4-diamine] | 3.1 | 522 | 26.2 | 0.33 | 0.47 | 109
COc1cc(N2CCC(N3CCN(C)CC3)CC2)ccc1Nc1ncc(F)c(Nc2cccc3c2N(S(C)(=O)=O)CC3)n1 [Example 32, 5-fluoro-N^2-(2-methoxy-4-(4-(4-methylpiperazin-1-yl)piperidin-1-yl)phenyl)-N^4-(1-(methylsulfonyl)indolin-7-yl)pyrimidine-2,4-diamine] | 0.88 | 570 | 62.8 | 1.9 | 0.54 | 246
COc1cc(N2CCC(N3CCN(C)CC3)CC2)ccc1Nc1ncc(C#N)c(Nc2cccc3c2N(S(C)(=O)=O)CC3)n1 [Example 33, 2-((2-methoxy-4-(4-(4-methylpiperazin-1-yl)piperidin-1-yl)phenyl)amino)-4-((1-(methylsulfonyl)indolin-7-yl)amino)pyrimidine-5-carbonitrile] | 1.3 | 328 | 68.5 | 1.3 | 1 | 225
COc1cc(N2CCC(N3CCN(C)CC3)CC2)ccc1Nc1ncc(Br)c(Nc2cccc3c2N(S(C)(=O)=O)CC3)n1 [Example 34, 5-bromo-N2-(2-methoxy-4-(4-(4-methylpiperazin-1-yl)piperidin-1-yl)phenyl)-N4-(1-(methylsulfonyl)indolin-7-yl)pyrimidine-2,4-diamine] | 0.72 | 427 | 4.25 | 0.21 | 0.24 | 13

From patent US20260167619A2, “INDOLINE COMPOUNDS AND DERIVATIVES AS EGFR INHIBITORS” (BeOne Medicines I GmbH, priority 2020, published 2026)
